Assay results from ChEMBL document CHEMBL2040712, “Design and synthesis of a second series of triazole-based compounds as potent dual mPGES-1 and 5-lipoxygenase inhibitors” (Eur J Med Chem, 2012).

Columns and labels:
[1] = biological target: T1, Polyunsaturated fatty acid 5-lipoxygenase (Homo sapiens, UniProt P09917); assay: Inhibition of 5-lipoxygenase in human neutrophil preincubated for 15 mins before substrate arachidonic acid addition measured after 10 mins by HPLC method
T1 sequence (P09917 whole entry): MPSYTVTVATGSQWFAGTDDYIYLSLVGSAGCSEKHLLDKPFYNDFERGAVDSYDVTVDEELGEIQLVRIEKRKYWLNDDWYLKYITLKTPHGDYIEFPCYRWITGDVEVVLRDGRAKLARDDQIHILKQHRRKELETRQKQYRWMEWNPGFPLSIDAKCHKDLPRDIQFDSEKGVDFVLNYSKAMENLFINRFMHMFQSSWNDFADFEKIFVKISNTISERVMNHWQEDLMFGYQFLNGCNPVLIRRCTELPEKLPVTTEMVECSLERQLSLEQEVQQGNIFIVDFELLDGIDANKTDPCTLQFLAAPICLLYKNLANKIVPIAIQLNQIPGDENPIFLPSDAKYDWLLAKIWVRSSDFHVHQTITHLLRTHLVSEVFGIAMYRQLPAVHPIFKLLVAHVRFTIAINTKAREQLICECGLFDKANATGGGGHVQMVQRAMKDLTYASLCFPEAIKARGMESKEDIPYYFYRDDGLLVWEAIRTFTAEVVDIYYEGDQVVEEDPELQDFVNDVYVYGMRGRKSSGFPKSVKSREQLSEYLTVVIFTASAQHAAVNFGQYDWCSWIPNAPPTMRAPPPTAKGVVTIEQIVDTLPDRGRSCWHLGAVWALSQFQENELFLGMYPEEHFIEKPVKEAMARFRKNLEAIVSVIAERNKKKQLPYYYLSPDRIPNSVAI

[2] = biological target: T1, Polyunsaturated fatty acid 5-lipoxygenase; assay: Inhibition of human recombinant 5-lipoxygenase in cell-free system preincubated for 10 mins before substrate arachidonic acid addition measured after 10 mins by RP-HPLC method
[3] = biological target: T2, Prostaglandin E synthase (Homo sapiens, UniProt O14684); assay: Inhibition of mPGES1 in IL-1beta-stimulated human A549 cell assessed as inhibition of PGE2 production preincubated for 15 mins before substrate addition by RP-HPLC method
T2 sequence (O14684 whole entry): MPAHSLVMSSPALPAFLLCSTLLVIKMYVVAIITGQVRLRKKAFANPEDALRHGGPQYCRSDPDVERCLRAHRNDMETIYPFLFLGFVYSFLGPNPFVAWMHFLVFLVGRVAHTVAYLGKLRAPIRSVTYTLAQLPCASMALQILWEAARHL

[4] = biological target: T3, Polyunsaturated fatty acid 5-lipoxygenase (Homo sapiens) (UniProt P09917); assay: Inhibition of human recombinant 5-lipoxygenase in cell-free system assessed as remaining activity at 10 uM preincubated for 10 mins before substrate arachidonic acid addition measured after 10 mins by RP-HPLC method
T3 sequence (whole entry): T1 sequence (P09917 whole entry)

[5] = biological target: T3, Polyunsaturated fatty acid 5-lipoxygenase (Homo sapiens); assay: Inhibition of 5-lipoxygenase in human neutrophil assessed as remaining activity at 10 uM preincubated for 15 mins before substrate arachidonic acid addition measured after 10 mins by HPLC method
[6] = biological target: T4, Prostaglandin E synthase (Homo sapiens) (UniProt O14684); assay: Inhibition of mPGES1 in IL-1beta-stimulated human A549 cell assessed as remaining activity measuring of PGE2 level at 10 uM preincubated for 15 mins before substrate addition by RP-HPLC method
T4 sequence (whole entry): T2 sequence (O14684 whole entry)

[7] = species on record: Rattus norvegicus; assay: Inhibition of mPGES1 in rat microsomal membranes assessed as inhibition of PGE2 production at 10 uM after 40 seconds by enzyme immunoassay; format: microsomes; conditions: Microsome

Compound: O=C(O)c1cccc(-c2ccc(-c3cn(Cc4ccc(C(=O)O)cc4[N+](=O)[O-])nn3)cc2)c1
- IC50 [1]: > 10 µM
- IC50 [2]: > 10 µM
- IC50 [3]: > 10 µM
- Activity [4]: 74.7%
- Activity [5]: 124%
- Activity [6]: 82.1%

Compound: CC(C)c1ccc2c(c1)c(SC(C)(C)C)c(CC(C)(C)C(=O)O)n2Cc1ccc(Cl)cc1
- inhibition [7]: 82%

Compound: O=C(O)c1ccc(Cn2cc(-c3ccc(-c4cccc(C(=O)N5CCOCC5)c4)cc3)nn2)c([N+](=O)[O-])c1
- IC50 [1]: > 10 µM
- IC50 [2]: > 10 µM
- IC50 [3]: > 10 µM
- Activity [4]: 62.7%
- Activity [5]: 125%
- Activity [6]: 88.9%

Compound: O=C(O)c1ccc(S(=O)(=O)n2cc(-c3ccc(-c4ccccc4COc4cc(C(F)(F)F)ccc4Cl)cc3)nn2)cc1
- IC50 [1]: 1.2 µM
- IC50 [2]: 1.96 µM
- IC50 [3]: > 10 µM
- Activity [6]: 78.6%

Compound: Nc1cc(C(=O)O)ccc1Cn1cc(-c2ccc(-c3ccccc3COc3cc(C(F)(F)F)ccc3Cl)cc2)nn1
- IC50 [1]: 2.1 µM
- IC50 [2]: 0.9 µM
- IC50 [3]: 0.68 µM

Compound: O=C(O)c1ccc(Cn2cc(-c3ccc(-c4ccccc4COc4cc(C(F)(F)F)ccc4Cl)cc3)nn2)cc1
- IC50 [1]: 2 µM
- IC50 [2]: 1.47 µM
- IC50 [3]: 1 µM

Compound: O=C(O)c1ccc(Cn2cc(-c3ccc(-c4ccccc4COc4cc(C(F)(F)F)ccc4Cl)cc3)nn2)c([N+](=O)[O-])c1
- IC50 [1]: 5.3 µM
- IC50 [2]: 2 µM
- IC50 [3]: 1.2 µM

Compound: O=C(O)c1ccc(Cn2cc(-c3ccc(-c4ccc(O)cc4)cc3)nn2)c([N+](=O)[O-])c1
- IC50 [1]: > 10 µM
- IC50 [2]: 6.8 µM
- IC50 [3]: > 10 µM
- Activity [5]: 108%
- Activity [6]: 74.2%

Compound: O=C(O)c1ccc(Cn2cc(-c3ccc(-c4cccc(O)c4)cc3)nn2)c([N+](=O)[O-])c1
- IC50 [1]: > 10 µM
- IC50 [2]: > 10 µM
- IC50 [3]: > 10 µM
- Activity [4]: 80.2%
- Activity [5]: 114%
- Activity [6]: 55.6%

Compound: O=C(O)c1ccc(Cn2cc(-c3ccc(-c4ccccc4C(=O)O)cc3)nn2)c([N+](=O)[O-])c1
- IC50 [1]: > 10 µM
- IC50 [2]: > 10 µM
- IC50 [3]: > 10 µM
- Activity [4]: 75.3%
- Activity [5]: 65.9%
- Activity [6]: 94.1%

Compound: O=C(O)c1ccc(-c2ccc(-c3cn(Cc4ccc(C(=O)O)cc4[N+](=O)[O-])nn3)cc2)cc1
- IC50 [1]: > 5 µM
- IC50 [2]: > 5 µM
- IC50 [3]: > 10 µM
- Activity [6]: 93%

Compound: Nc1ccc(-c2ccc(-c3cn(Cc4ccc(C(=O)O)cc4[N+](=O)[O-])nn3)cc2)cc1
- IC50 [1]: > 10 µM
- IC50 [2]: > 10 µM
- IC50 [3]: > 10 µM
- Activity [4]: 63.5%
- Activity [5]: 100%
- Activity [6]: 65.5%

Compound: O=C(O)c1ccc(Cn2cc(-c3ccc(-c4cccs4)cc3)nn2)c([N+](=O)[O-])c1
- IC50 [1]: > 10 µM
- IC50 [2]: > 10 µM
- IC50 [3]: 5.5 µM
- Activity [4]: 52.2%
- Activity [5]: 89.7%

Compound: O=C(O)c1ccc(Cn2cc(-c3ccc(-c4ccccc4)cc3)nn2)c([N+](=O)[O-])c1
- IC50 [3]: < 3.2 µM

Compound: CN(C)c1ccc2cc(S(=O)(=O)Nc3ccc(-c4ccc(-c5cn(Cc6ccc(C(=O)O)cc6[N+](=O)[O-])nn5)cc4)cc3)ccc2c1
- IC50 [1]: > 10 µM
- IC50 [2]: 6.1 µM
- IC50 [3]: > 10 µM
- Activity [5]: 96.5%
- Activity [6]: 72.5%

Compound: COc1cc(-c2ccc(-c3cn(Cc4ccc(C(=O)O)cc4[N+](=O)[O-])nn3)cc2)cc(OC)c1OC
- IC50 [1]: > 10 µM
- IC50 [2]: > 10 µM
- IC50 [3]: > 10 µM
- Activity [4]: 64.3%
- Activity [5]: 90.2%
- Activity [6]: 54.3%

Compound: COc1ccc(-c2ccc(-c3cn(Cc4ccc(C(=O)O)cc4[N+](=O)[O-])nn3)cc2)cc1CN1CCOCC1
- IC50 [1]: > 10 µM
- IC50 [2]: > 10 µM
- IC50 [3]: > 10 µM
- Activity [4]: 84.9%
- Activity [5]: 111%
- Activity [6]: 87.4%
